Patent US9113629B2, “4-amino-6-(4-substituted-phenyl)-picolinates and 6-amino-2-(4-substituted-phenyl)-pyrimidine-4-carboxylates and their use as herbicides” (DOW AGROSCIENCES LLC, priority 2013, dated 2015)
Where two headings read alike, the source gives them in different places.

Assays:
[1] = tested on: Key Broadleaf Weed and Crop Species; assay: Post-emergent Test II herbicidal activity (Table 5); type: in vivo; conditions: post-emergence, 336 h, 14 days after application; for pest or weed control at 70 g/ha: application rate 70 g ai/ha; for pest or weed control at 140 g/ha: application rate 140 g ai/ha
Method in brief: (§1)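 Test species were raised 7–21 d under greenhouse conditions until reaching the first or second true leaf, sprayed with formulated compound at 187 L/ha, and kept subirrigated to avoid wash-off. Fourteen days later, damage was rated visually on a 0–100% scale against untreated plants.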

[2] = tested on: Key Grass and Sedge Weeds as well as Grass Crops; assay: Post-emergent Test II herbicidal activity (Table 6); type: in vivo; conditions: post-emergence, 336 h; for pest or weed control at 70 g/ha: 70 g ai/ha; for pest or weed control at 140 g/ha: 140 g ai/ha
Method in brief: as §1

[3] = ABUTH: velvetleaf (Abutilon theophrasti), read-out: Visual Growth Reduction (%) 14 Days After Application, ABUTH
[4] = AMARE: redroot pigweed (Amaranthus retroflexus), read-out: Visual Growth Reduction (%) 14 Days After Application, AMARE
[5] = BRSNN: oilseed-rape, canola (Brassica napus), read-out: Visual Growth Reduction (%) 14 Days After Application, BRSNN
[6] = CHEAL: lambsquarters (Chenopodium album), read-out: Visual Growth Reduction (%) 14 Days After Application, CHEAL
[7] = EPHHL: wild poinsettia (Euphorbia heterophylla), read-out: Visual Growth Reduction (%) 14 Days After Application, EPHHL
[8] = HELAN: sunflower (Helianthus annuus), read-out: Visual Growth Reduction (%) 14 Days After Application, HELAN
[9] = VIOTR: wild pansy (Viola tricolor), read-out: Visual Growth Reduction (%) 14 Days After Application, VIOTR
[10] = CYPES: yellow nutsedge (Cyperus esculentus), read-out: Visual Growth Reduction (%) 14 Days After Application, CYPES
[11] = DIGSA: crabgrass (Digitaria sanguinalis), read-out: Visual Growth Reduction (%) 14 Days After Application, DIGSA
[12] = ECHCG: barnyardgrass (Echinochloa crus-galli), read-out: Visual Growth Reduction (%) 14 Days After Application, ECHCG
[13] = ORYSA: rice (Oryza sativa), crop, read-out: Visual Growth Reduction (%) 14 Days After Application, ORYSA
[14] = SETFA: giant foxtail (Setaria faberi), read-out: Visual Growth Reduction (%) 14 Days After Application, SETFA
[15] = SORVU: grain sorghum (Sorghum vulgare), read-out: Visual Growth Reduction (%) 14 Days After Application, SORVU
[16] = TRZSS (wheat, Triticum aestivum), crop, read-out: Visual Growth Reduction (%) 14 Days After Application, TRZSS
[17] = ZEAMX: maize, corn (Zea mays), crop, read-out: Visual Growth Reduction (%) 14 Days After Application, ZEAMX

C#Cc1ccc(-c2nc(C(=O)OC)c(Cl)c(N)c2F)cc1 [Compound 7, methyl 4-amino-3-chloro-6-(4-ethynylphenyl)-5-fluoropicolinate]
95 to 100%: pest or weed control at 70 g/ha [1, 3] | pest or weed control at 140 g/ha [1, 3] | pest or weed control at 70 g/ha [1, 4] | pest or weed control at 140 g/ha [1, 4] | pest or weed control at 70 g/ha [1, 6] | pest or weed control at 140 g/ha [1, 6] | pest or weed control at 140 g/ha [1, 7] | pest or weed control at 140 g/ha [1, 8] | pest or weed control at 140 g/ha [2, 12] | pest or weed control at 140 g/ha [2, 14] | pest or weed control at 70 g/ha [2, 17] | pest or weed control at 140 g/ha [2, 17]
127 to 130 °C: melting point
85 to 94%: pest or weed control at 70 g/ha [1, 5] | pest or weed control at 140 g/ha [1, 5] | pest or weed control at 70 g/ha [1, 7] | pest or weed control at 70 g/ha [1, 8] | pest or weed control at 140 g/ha [2, 10] | pest or weed control at 140 g/ha [2, 11] | pest or weed control at 70 g/ha [2, 15] | pest or weed control at 140 g/ha [2, 15]
0 to 29%: pest or weed control at 70 g/ha [1, 9] | pest or weed control at 140 g/ha [1, 9] | pest or weed control at 70 g/ha [2, 13] | pest or weed control at 140 g/ha [2, 13]
30 to 44%: pest or weed control at 70 g/ha [2, 16]
75 to 84%: pest or weed control at 70 g/ha [2, 10] | pest or weed control at 70 g/ha [2, 11] | pest or weed control at 70 g/ha [2, 12]
45 to 59%: pest or weed control at 140 g/ha [2, 16]
60 to 74%: pest or weed control at 70 g/ha [2, 14]

COC(=O)c1nc(-c2ccc(Br)c(F)c2)c(F)c(N)c1Cl [Compound 49]
75 to 84%: pest or weed control at 140 g/ha [2, 11]
60 to 74%: pest or weed control at 70 g/ha [2, 11] | pest or weed control at 70 g/ha [2, 14] | pest or weed control at 140 g/ha [2, 16]
45 to 59%: pest or weed control at 70 g/ha [2, 16]
95 to 100%: pest or weed control at 70 g/ha [1, 3] | pest or weed control at 140 g/ha [1, 3] | pest or weed control at 70 g/ha [1, 4] | pest or weed control at 140 g/ha [1, 4] | pest or weed control at 70 g/ha [1, 5] | pest or weed control at 140 g/ha [1, 5] | pest or weed control at 70 g/ha [1, 6] | pest or weed control at 140 g/ha [1, 6] | pest or weed control at 70 g/ha [1, 8] | pest or weed control at 140 g/ha [1, 8] | pest or weed control at 70 g/ha [1, 9] | pest or weed control at 140 g/ha [1, 9] | pest or weed control at 70 g/ha [2, 10] | pest or weed control at 140 g/ha [2, 12] | pest or weed control at 140 g/ha [2, 14] | pest or weed control at 70 g/ha [2, 15] | pest or weed control at 140 g/ha [2, 15] | pest or weed control at 70 g/ha [2, 17] | pest or weed control at 140 g/ha [2, 17]
0 to 29%: pest or weed control at 70 g/ha [2, 13] | pest or weed control at 140 g/ha [2, 13]
85 to 94%: pest or weed control at 140 g/ha [2, 10] | pest or weed control at 70 g/ha [2, 12]

C#Cc1ccc(-c2nc(C(=O)O)c(Cl)c(N)c2F)cc1 [Compound 62]
95 to 100%: pest or weed control at 70 g/ha [1, 4] | pest or weed control at 70 g/ha [1, 5] | pest or weed control at 140 g/ha [1, 5] | pest or weed control at 70 g/ha [1, 7] | pest or weed control at 140 g/ha [1, 7] | pest or weed control at 140 g/ha [1, 8] | pest or weed control at 70 g/ha [2, 10] | pest or weed control at 140 g/ha [2, 10] | pest or weed control at 70 g/ha [2, 12] | pest or weed control at 140 g/ha [2, 12] | pest or weed control at 70 g/ha [2, 14] | pest or weed control at 140 g/ha [2, 14]
0 to 29%: pest or weed control at 70 g/ha [1, 9] | pest or weed control at 140 g/ha [1, 9] | pest or weed control at 70 g/ha [2, 13] | pest or weed control at 140 g/ha [2, 13]
45 to 59%: pest or weed control at 70 g/ha [2, 16] | pest or weed control at 140 g/ha [2, 16]
142 to 147 °C (dec.): melting point
75 to 84%: pest or weed control at 70 g/ha [1, 3] | pest or weed control at 140 g/ha [1, 3] | pest or weed control at 70 g/ha [2, 15] | pest or weed control at 140 g/ha [2, 15] | pest or weed control at 70 g/ha [2, 17]
85 to 94%: pest or weed control at 70 g/ha [1, 6] | pest or weed control at 140 g/ha [1, 6] | pest or weed control at 70 g/ha [1, 8] | pest or weed control at 70 g/ha [2, 11] | pest or weed control at 140 g/ha [2, 11] | pest or weed control at 140 g/ha [2, 17]

COC(=O)c1nc(-c2ccc(C(F)(F)F)c(F)c2F)nc(N)c1OC [Compound 64]
75 to 84%: pest or weed control at 140 g/ha [1, 4] | pest or weed control at 70 g/ha [1, 5]
45 to 59%: pest or weed control at 70 g/ha [1, 4] | pest or weed control at 70 g/ha [2, 10] | pest or weed control at 70 g/ha [2, 12] | pest or weed control at 140 g/ha [2, 15] | pest or weed control at 140 g/ha [2, 16]
95 to 100%: pest or weed control at 70 g/ha [1, 3] | pest or weed control at 140 g/ha [1, 3] | pest or weed control at 70 g/ha [1, 6] | pest or weed control at 140 g/ha [1, 6] | pest or weed control at 70 g/ha [1, 7] | pest or weed control at 140 g/ha [1, 7] | pest or weed control at 70 g/ha [1, 8] | pest or weed control at 140 g/ha [1, 8] | pest or weed control at 70 g/ha [2, 17] | pest or weed control at 140 g/ha [2, 17]
0 to 29%: pest or weed control at 70 g/ha [2, 13] | pest or weed control at 140 g/ha [2, 13]
140 to 141 °C: melting point
85 to 94%: pest or weed control at 140 g/ha [1, 5] | pest or weed control at 140 g/ha [2, 11] | pest or weed control at 140 g/ha [2, 12]
30 to 44%: pest or weed control at 70 g/ha [2, 14] | pest or weed control at 70 g/ha [2, 15] | pest or weed control at 70 g/ha [2, 16]
60 to 74%: pest or weed control at 70 g/ha [1, 9] | pest or weed control at 140 g/ha [1, 9] | pest or weed control at 140 g/ha [2, 10] | pest or weed control at 70 g/ha [2, 11] | pest or weed control at 140 g/ha [2, 14]

Nc1c(F)c(-c2ccccc2)nc(C(=O)O)c1Cl [Compound 180]
95 to 100%: pest or weed control at 140 g/ha [1, 3] | pest or weed control at 140 g/ha [1, 5] | pest or weed control at 70 g/ha [1, 6] | pest or weed control at 140 g/ha [1, 6]
45 to 59%: pest or weed control at 70 g/ha [1, 4] | pest or weed control at 140 g/ha [2, 10]
75 to 84%: pest or weed control at 140 g/ha [1, 4] | pest or weed control at 140 g/ha [1, 7]
30 to 44%: pest or weed control at 70 g/ha [2, 10] | pest or weed control at 140 g/ha [2, 15]
85 to 94%: pest or weed control at 70 g/ha [1, 3] | pest or weed control at 70 g/ha [1, 5] | pest or weed control at 70 g/ha [1, 8] | pest or weed control at 140 g/ha [1, 8]
0 to 29%: pest or weed control at 70 g/ha [1, 9] | pest or weed control at 140 g/ha [1, 9] | pest or weed control at 70 g/ha [2, 11] | pest or weed control at 140 g/ha [2, 11] | pest or weed control at 70 g/ha [2, 12] | pest or weed control at 140 g/ha [2, 12] | pest or weed control at 70 g/ha [2, 13] | pest or weed control at 140 g/ha [2, 13] | pest or weed control at 70 g/ha [2, 14] | pest or weed control at 140 g/ha [2, 14] | pest or weed control at 70 g/ha [2, 15] | pest or weed control at 70 g/ha [2, 16] | pest or weed control at 140 g/ha [2, 16] | pest or weed control at 70 g/ha [2, 17] | pest or weed control at 140 g/ha [2, 17]
60 to 74%: pest or weed control at 70 g/ha [1, 7]
